Results: patent US5324708A, “Non-hygroscopic monoammonium salts of phosphonic and phosphinic acids” (Aklaloida Vegyeszeti Gyar Rt., priority 1991, dated 1994)
Structures can show the parent of a compound that is named as a salt. Where two headings read alike, the source gives them in different places.

Assays:
[1] = Water solubility of products (in words); assay type: physicochemical
[2] = Hygroscopicity of products (in words); assay type: physicochemical; settings: product of the example
Experimental: "Non-hygroscopic" according to our invention means, that when exposed at 25° C. to an environment containing 60% humidity no observable uptake of water takes place within 3 weeks or this uptake is less than 0.1%. The salts are crystalline, they have melting point ranges that are different from those published before and their water-solubility is somewhat increased as compared with the salts prepared with the known methods.

[3] = Solubility tests, N-(phosphonomethyl)-glycine and its salts (Table IV); assay type: physicochemical
From the text: Table IV illustrates some solubility values of the mono-isopropylammonium salts and di-isopropylammonium salts of N-(phosphonomethyl)-glycine on the basis of which the processes according to our invention can be reduced to practice. All solvents or solvent-mixtures can be used for our processes which show a reasonable solubility--difference between the salts and products that have to be separated.

[4] = Uptake of humidity in open containers at 60% humidity and 25° C. (Table VI); assay type: physicochemical; settings: 60% humidity
Experimental: The samples were investigated in open containers, at 60% humidity and 25° C.

[5] = according to prior publications; cited from earlier work

For `O=C(O)CNCP(=O)(O)O` [I.8, mono-isopropylammoniumsalt of N-(phosphonomethyl)-glycine], the “solubility in water (in words)” value [1] was “readily soluble” and the “hygroscopicity (in words)” value [2] was “non-hygroscopic”.

With `O=C(O)CNCP(=O)(O)O` [I.22, mono-isopropylammonium salt of N-(phosphonomethyl)-glycine] the “solubility in water (in words)” value [1] was “readily soluble” and the “hygroscopicity (in words)” value [2] was “non-hygroscopic”.

For `O=C(O)CNCP(=O)(O)O` [I.23, mono-isoptopylammonium salt of N-(phosphonomethyl)-glycine], the “solubility in water (in words)” value [1] was “readily soluble” and the “hygroscopicity (in words)” value [2] was “non-hygroscopic”.

In the case of `O=C(O)CNCP(=O)(O)O` [Example I.2, mono-isopropylammonium salt of N-(phosphonomethyl)-glycine], the “solubility in water (in words)” value [1] is reported as “readily soluble” and the “hygroscopicity (in words)” value [2] is reported as “not hygroscopic”.

With `O=C(O)CNCP(=O)(O)O` [I.7, mono-isopropylammonium salt of N-(phosphonomethyl)-glycine] the “hygroscopicity (in words)” value [2] was “non-hygroscopic”.

With `O=C(O)CNCP(=O)(O)O` [I.17, mono-isopropylammonium salt of N-(phosphonomethyl)-glycine] the “solubility in water (in words)” value [1] was “readily soluble” and the “hygroscopicity (in words)” value [2] was “non-hygroscopic”.

In the case of `O=C(O)CNCP(=O)(O)O` [I.19, mono-ethylammonium salt of N-(phosphonomethyl)-glycine], the “solubility in water (in words)” value [1] is reported as “readily soluble” and the “hygroscopicity (in words)” value [2] is reported as “non-hygroscopic”.

`O=C(O)CNCP(=O)(O)O` [mono-IPA salt, mono-isopropylammonium salt of N-(phosphonomethyl)-glycine] gave an SOLUBILITY ([3]; benzene) of less than 0.1 g/L, an SOLUBILITY ([3]; benzyl-alcohol) of 0.5 g/L and an SOLUBILITY ([3]; dimethyl-formamide) of 1.8 g/L. For the same compound, the SOLUBILITY ([3]; isopropyl amine) was less than 0.1 g/L, the SOLUBILITY ([3]; methanol) was 56 g/L and the SOLUBILITY ([3]; n-butanol) was 0.1 g/L. It also gave an SOLUBILITY ([3]; n-propanol) of 0.7 g/L, an SOLUBILITY ([3]; propylene-glycol) of 184.0 g/L and an SOLUBILITY ([3]; water) of 1470 g/L. The Uptake of humidity ([4]; 1 day) was 0.1%, the Uptake of humidity ([4]; 2 days) was 0.1% and the Uptake of humidity ([4]; 7 days) was 0.1%. It also gave an Uptake of humidity ([4]; 14 days) of 0.1%, an Uptake of humidity ([4]; 30 days) of 0.1% and an Uptake of humidity ([4]; 90 days) of 0.1%. The Appearance ([4]; after 30 days) was “unchanged” and the “hygroscopicity (in words)” value [5] was “extreme hygroscopic nature”.

With `O=C(O)CNCP(=O)(O)O` [Example I.24, mono-isopropylammonium salt of N-(phosphonomethyl)-glycine] the “solubility in water (in words)” value [1] was “readily soluble” and the “hygroscopicity (in words)” value [2] was “non-hygroscopic”.

With `O=C(O)CNCP(=O)(O)O` [I.14, mono-isopropylammonium salt of N-(phosphonomethyl)-glycine] the “solubility in water (in words)” value [1] was “readily soluble” and the “hygroscopicity (in words)” value [2] was “non-hygroscopic”.

For `CP(=O)(O)CCC(N)C(=O)O` (stereo not shown) [mono-ammonium salt, (3-amino-3-carboxy-propyl)-methane-phosphinic acid ammonium salt], the “hygroscopicity (in words)” value [5] is given as “hygroscopic”.

Work on `O=C(O)CNCP(=O)(O)O` [glyphosate, N-(phosphonomethyl)-glycine] yielded an SOLUBILITY ([3]; benzene) of less than 0.1 g/L, an SOLUBILITY ([3]; benzyl-alcohol) of less than 0.2 g/L and an SOLUBILITY ([3]; dimethyl-formamide) of less than 0.2 g/L. The SOLUBILITY ([3]; ethanol) was 0.2 g/L, the SOLUBILITY ([3]; isopropanol) was less than 0.5 g/L and the SOLUBILITY ([3]; methanol) was less than 0.3 g/L. For the same compound, the SOLUBILITY ([3]; n-propanol) was less than 0.5 g/L and the SOLUBILITY ([3]; water) was 12 g/L.

For `O=C(O)CNCP(=O)(O)O` [I.26, mono-isopropylammonium salt of N-(phosphonomethyl)-glycine], the “solubility in water (in words)” value [1] was “readily soluble” and the “hygroscopicity (in words)” value [2] was “non-hygroscopic”.

With `O=C(O)CNCP(=O)(O)O` [Example I.15, mono-isopropylammonium salt of N-(phosphonomethyl)-glycine] the “solubility in water (in words)” value [1] was “readily soluble” and the “hygroscopicity (in words)” value [2] was “non-hygroscopic”.

For `CP(=O)(O)CCC(N)C(=O)O` (stereo not shown) [I.10, mono-isopropylammoniumsalt of (3-amino-3-carboxy-propyl)-methane-phosphinic acid], the “hygroscopicity (in words)” value [2] was “non-hygroscopic”.

With `CP(=O)(O)CCC(N)C(=O)O` (stereo not shown) [I.9, mono-isopropylammoniumsalt of (3-amino-3-carboxy-propyl)-methane-phosphinic acid] the “hygroscopicity (in words)” value [2] was “non-hygroscopic”.

In the case of `O=C(O)CNCP(=O)(O)O` [Example I.18, mono-(dimethyl-ammonium)-salt of N-(phosphonomethyl)-glycine], the “solubility in water (in words)” value [1] is reported as “readily soluble” and the “hygroscopicity (in words)” value [2] is reported as “non-hygroscopic”.

For `O=C(O)CNCP(=O)(O)O` [Example I.1, mono-isopropylammonium salt of N-(phosphonomethyl)-glycine], the “solubility in water (in words)” value [1] was “readily soluble” and the “hygroscopicity (in words)” value [2] was “not hygroscopic”.

For `O=C(O)CNCP(=O)(O)O` [I.25, mono-isopropylammonium salt of N-(phosphonomethyl)-glycine], the “solubility in water (in words)” value [1] was “readily soluble” and the “hygroscopicity (in words)” value [2] was “non-hygroscopic”.

In the case of `O=C(O)CNCP(=O)(O)O` [I.16, mono-isopropylammonium salt of N-(phosphonomethyl)-glycine], the “solubility in water (in words)” value [1] is reported as “readily soluble” and the “hygroscopicity (in words)” value [2] is reported as “non-hygroscopic”.

With `O=C(O)CNCP(=O)(O)O` [Example I.12, mono-isopropylammmonium salt of N-(phosphonomethyl)-glycine] the “solubility in water (in words)” value [1] was “readily soluble” and the “hygroscopicity (in words)” value [2] was “non-hygroscopic”.

In the case of `O=C(O)CNCP(=O)(O)O` [I.13, mono-isopropylammmonium salt of N-(phosphonomethyl)-glycine], the “solubility in water (in words)” value [1] is reported as “readily soluble” and the “hygroscopicity (in words)” value [2] is reported as “non-hygroscopic”.

With `O=C(O)CNCP(=O)(O)O` [Example I.20, mono-isopropylammonium salt of N-(phosphonomethyl)-glycine] the “solubility in water (in words)” value [1] was “readily soluble” and the “hygroscopicity (in words)” value [2] was “non-hygroscopic”.

For `O=C(O)CNCP(=O)(O)O` [di-IPA salt, di-(mono-isopropylamine)-salt of N-(phosphonomethyl)-glycine], the “solubility in water (in words)” value [1] was “readily soluble”, the SOLUBILITY ([3]; benzene) was less than 0.1 g/L and the SOLUBILITY ([3]; benzyl-alcohol) was 420 g/L. It also gave an SOLUBILITY ([3]; dimethyl-formamide) of 22 g/L, an SOLUBILITY ([3]; isopropyl amine) of less than 0.1 g/L and an SOLUBILITY ([3]; methanol) of 570 g/L. The SOLUBILITY ([3]; n-butanol) was 35 g/L, the SOLUBILITY ([3]; n-propanol) was 170 g/L and the SOLUBILITY ([3]; propylene-glycol) was 244 g/L. The Uptake of humidity ([4]; 1 day, listed as di-isopropyl-ammonium salt of N-(phosphonomethyl)-glycine) was 13.0%, the Uptake of humidity ([4]; 2 days, listed as di-isopropyl-ammonium salt of N-(phosphonomethyl)-glycine) was 14.5% and the Uptake of humidity ([4]; 7 days, listed as di-isopropyl-ammonium salt of N-(phosphonomethyl)-glycine) was 16.1%. The Uptake of humidity ([4]; 14 days, listed as di-isopropyl-ammonium salt of N-(phosphonomethyl)-glycine) was 18.8%, the Uptake of humidity ([4]; 30 days, listed as di-isopropyl-ammonium salt of N-(phosphonomethyl)-glycine) was 19.2% and the Uptake of humidity ([4]; 90 days, listed as di-isopropyl-ammonium salt of N-(phosphonomethyl)-glycine) was 30.9%. The Appearance ([4]; within 1 day) was “sticky and hygroscopic” and the Appearance ([4]; within 4 days) was “completely liquid”.

With `O=C(O)CNCP(=O)(O)O` [I.21, mono-isopropylammonium salt of N-(phosphonomethyl)-glycine] the “solubility in water (in words)” value [1] was “readily soluble” and the “hygroscopicity (in words)” value [2] was “non-hygroscopic”.
